Test [1] has as its target T1, GAPDH (Homo sapiens, UniProt P04406). The test can be described thus: Photoaffinity binding and BODIPY-labelled CGP3466 protein binding study. Particulars: photoaffinity binding techniques, BODIPY chromogen. From the text: It was also shown that there was an increase in GAPDH levels found in early apoptosis. Photoaffinity binding techniques and a BODIPY chromogen attached to dibenzo[bf]oxepin-10-ylmethyl-prop-2-ynyl-amine (CGP3466), were used to study the protein and subcellular binding of (−)-desmethyldeprenyl (DES) and CGP3466.

A further test concerns PC12 cells. The test is described as follows: Subcellular localization of GAPDH in PC12 cells entering apoptosis (immunocytochemistry, LCSM). It is filed as cell-based. To be noted: early apoptosis, 3-12 hours after serum and NGF withdrawal. The text has this: (§1) The subcellular localization of GAPDH in PC12 cells entering apoptosis using immunocytochemistry and LCSM has been studied.

In test [2] the test system is GAPDH. The test is described as follows: GAPDH protein levels in early apoptosis after trophic withdrawal. It is filed as cell-based. To be noted: increase begins 1.5 to 2.0 hours after trophic withdrawal. The text has this:
(§2) As well as the nuclear translocation, GAPDH levels increase rapidly in the early phases of apoptosis. […] At least three molecules associated with toxin-induced neuronal apoptosis—nitric oxide, superoxide radical and peroxynitrite—have the capacity to free GAPDH from AU-rich RNA (Beckman and Koppenol, 1996). Nitric oxide modifies the structure of GAPDH and appears to free it from AU-rich RNA (Brune and Lapetina, 1995; Brune and Lapetina, 1996; Itoga et al., 1997; McDonald and Moss, 1994). Oxygen free radicals enhance the binding of NAD^+ to GAPDH (Marin et al., 1995). If, in fact, GAPDH translocation to the nucleus does initiate or facilitate apoptosis, then ROS and NO may induce apoptosis through GAPDH.

Test [3] addresses T1, GAPDH. The test can be described thus: Size exclusion chromatography of the oligomeric state of GAPDH. It is filed as biochemical. Particulars: for oligomeric state of GAPDH bound to poly-U RNA: size exclusion chromatography, GAPDH largely tetrameric without compound; for oligomeric state of GAPDH in the presence of SDS: sodium dodecyl sulfate added, untreated protein becomes monomeric. The protocol: A dehydrogenase oligomeric modulator is identified using size exclusion chromatographic (SEC) techniques. A test compound is tested for its ability to prevent tetramer formation of GAPDH and compounds capable of preventing or inhibiting such formation are identified as DOMs. SEC is used to determine if potential compounds affect the oligomeric state of GAPDH (or any oligomeric protein) when contacted with GAPDH under conditions which promote oligomer formation. This method can be further refined and sped up (i.e., faster data collection) by using SEC-high performance liquid chromatographic (SEC-HPLC) methods. An example is set forth below.
A column was made using a disposable 1 cm diameter column (BIORAD). The chosen matrix for the column was Sephacryl H-300 (PHARMACIA). The column was poured by mixing the beads (SEPHACRYL) in a buffer and layering into the column until the bed was about 12 cm long. The buffer used was 50 mM TRIS—HCl, pH 8.0. The column was then washed with the same buffer for 10 column volumes.
A selection.of protein standards of known molecular weight was run through the column.
Once the column is calibrated, the molecular weight of the eluted fractions (in this case, GAPDH monomers, dimers and tetramers) may be determined.
Prior to moving the proteins to the column they are contacted with candidate compound and mixed at room temperature in, e.g., nanomolar concentrations under conditions known to those skilled in the art.
The mixture prepared above is then added to the column and eluted with 50 mM TRIS—HCl pH 8.0 buffer. 500 μl fractions of the eluent are collected. The optical density of the fractions is then determined, e.g., at 280 nm, and an elution profile prepared and analyzed to determine the extent of oligomerization.
GAPDH is a tetramer consisting of four identical monomers (FIG. 1). The tetramer exists in equilibrium between tetramers, dimers and monomers. This equilibrium strongly favors the tetrameric form. Upon tetramer formation, there is a channel present between the four monomers. […] As such, the ability of (−)-desmethyldeprenyl and CGP3466 to decrease GAPDH tetramer and increase GAPDH dimer in vitro identifies these compounds as oligomeric modulators of GAPDH.

Test [4] deals with partially differentiated PC12 cells or fibroblasts. The test is described as follows: Apoptosis and GAPDH nuclear translocation after NO donor treatment. It is filed as cell-based.
Text: as §1

Test [5] concerns the target T1, GAPDH. The test can be described thus: Antibody blocking experiment for drug binding in the GAPDH channel. To be noted: protein first treated with antibody, then drug. The protocol:
Antibody blocking experiments were conducted to confirm that CGP3466 bound GAPDH in the channel. In FIG. 2, GAPDH is shown in blue with the site for an antibody which was raised to a certain part of GAPDH is green.

Test [6] has as its target T1, GAPDH. Particulars: cited from earlier work.
The test system of another test is NG108-15 cells. Particulars: cited from earlier work.
In the next test the test system is fibroblasts. The test is described as follows: GAPDH nuclear translocation in fibroblasts treated with NAD+. It is filed as cell-based.
Test [7] concerns the target T1, GAPDH. The test can be described thus: Release of GAPDH from AU-rich RNA and glycolytic activity. It is filed as biochemical.
Text: as §2

A further test relates to COS and Hek cells. The test is described as follows: GAPDH-GFP fusion protein localization in living COS and Hek cells (LCSM). It is filed as cell-based. Particulars: first two hours after exposure. From the text: GAPDH cDNA was cloned from rat brain using oligonucleotides designed to the 5′- and 3′-ends of the coding region of rat GAPDH with PCR. The cDNA was used to produce a GAPDH-green fluorescent protein (GFP) construct by adding a 3′ oligo (Gly)s to the C-terminus of GAPDH followed by a BamHI site to allow subcloning, in frame, into pEGFP-1 (Clontech). The resulting construct contains GAPDH followed by (Gly)5 and enhanced GFP. The insert was subcloned into the Hindlil-Notl sites of pcDNA3. The GAPDH-GFP construct has been transiently transfected into COS1 cells and stably transfected into HEK 293 cells.
Apoptosis was induced in the living COS and Hek cells maintained in a physiological chamber on LCSM. […] These experiments established that GAPDH nuclear translocation occurs dynamically during the very early stages of apoptosis and indicate that GAPDLH participates in the initiation phase of apoptosis.

Entries after “also recorded” stand apart in the source; their conditions may differ.

T1 sequence (P04406 whole entry, species assumed): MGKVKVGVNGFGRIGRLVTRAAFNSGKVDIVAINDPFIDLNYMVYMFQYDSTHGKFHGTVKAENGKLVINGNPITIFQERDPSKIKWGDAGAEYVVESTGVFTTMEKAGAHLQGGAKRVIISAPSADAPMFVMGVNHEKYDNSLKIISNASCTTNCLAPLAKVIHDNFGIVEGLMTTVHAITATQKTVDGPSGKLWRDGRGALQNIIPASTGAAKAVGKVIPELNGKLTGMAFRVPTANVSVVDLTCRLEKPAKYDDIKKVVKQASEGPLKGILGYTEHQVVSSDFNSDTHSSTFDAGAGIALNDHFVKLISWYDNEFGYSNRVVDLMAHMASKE

For the compound `C#CCNC(C)Cc1ccccc1` (single isomer, unassigned; (-)) [(−)-desmethyldeprenyl], the “binding to GAPDH” value on GAPDH [1] is “bind to GAPDH”. For the same compound, the “nuclear translocation (relocation) of GAPDH” value in the test with PC12 cells was “prevent the nuclear relocation of GAPDH”. The “nuclear translocation (relocation) of GAPDH” value in the test on PC12 cells (listed as DES) was “blocked the nuclear translocation”. Moreover, the “increase in GAPDH protein levels in early apoptosis” value (from here on “increase in GAPDH protein levels”) in the test on GAPDH [2] is “prevent the increase”. Also, at GAPDH [3], the “effect on the GAPDH tetramer” value is given as “disrupt the tetramer forming dimers”, the “oligomeric state of GAPDH bound to poly-U RNA” value was “converted to a dimer” and the “oligomeric state of GAPDH in the presence of SDS” value (shortened to “oligomeric state … of SDS”) was “remains dimeric”. Moreover, on GAPDH [3] (listed as DES), the “oligomeric state … of SDS” value was “convert it to a dimer”.

Regarding `CC(=O)N[C@@H](CS)C(=O)O` [NAC, N-acetyl cysteine], in the test on GAPDH [2], the “increase in GAPDH protein levels” value is listed as “prevent the increase”.

For the compound `CC(=O)N[C@@H](C(=O)O)C(C)(C)SN=O` (racemic) [SNAP], in [4], the induction of apoptosis entry is on record as “induced apoptosis”.

Consider `C#CCNCC1=Cc2ccccc2Oc2ccccc21` [CGP3466, dibenzo[bf]oxepin-10-ylmethyl-prop-2-ynyl-amine], for which, at GAPDH [1], the “binding to GAPDH” value is “bind to GAPDH”; the proteins bound result was “tubulin, actin, synapsin and GAPDH”. Further, the “nuclear translocation (relocation) of GAPDH” value in the test on PC12 cells is “prevent the nuclear relocation of GAPDH; also recorded: blocked the nuclear translocation”. Further, in the test with GAPDH [2], the “increase in GAPDH protein levels” value was “prevent the increase”. Moreover, on GAPDH [3], the “effect on the GAPDH tetramer” value is “disrupt the tetramer forming dimers”, the “oligomeric state of GAPDH bound to poly-U RNA” value is reported as “converted to a dimer” and the “oligomeric state … of SDS” value is reported as “convert it to a dimer”. Moreover, at GAPDH [3] (listed as CGP 3466), the “oligomeric state … of SDS” value is “remains dimeric”. Besides, the “drug binding to GAPDH after pre-treatment with antibody to the channel site” value at GAPDH [5] is listed as “no binding”.

For the compound `CC(C)[C@H]1CC[C@@]2(CO2)[C@H]2C(=O)OCC(C(=O)O)=C[C@H]12` [Koningic acid], the GAPDH glycolytic function result on GAPDH [6] was “inhibits GAPDH glycolytic function”. For the same compound, the induction of apoptosis entry in the test with NG108-15 cells was “induces apoptosis”.

Take `NC(=O)c1ccc[n+]([C@@H]2O[C@H](COP(=O)([O-])OP(=O)(O)OC[C@H]3O[C@@H](n4cnc5c(N)ncnc54)[C@H](O)[C@@H]3O)[C@@H](O)[C@H]2O)c1` [NAD^+]: the “nuclear translocation of GAPDH” value in the test with fibroblasts is “induced the dense translocation of GAPDH to the nucleus”. At GAPDH [7], the GAPDH glycolytic activity result is reported as “increases the enzyme's glycolytic activity” and the “release of GAPDH from AU-rich RNA” value is “releases GAPDH from AU-rich RNA”.

As to `O=C([O-])c1c(Cl)c(Cl)c(Cl)c(Cl)c1-c1c2cc(I)c(=O)c(I)c-2oc2c(I)c([O-])c(I)cc12.[Na+].[Na+]` [Rose Bengal], the “localization of GAPDH-GFP fusion protein” value in the test on COS and Hek cells is recorded as “concentrate in the nucleus of a proportion of the cells”.

Source of the values: patent US20040086891A1, “Dehydrogenase oligomeric modulators” (priority 1998, published 2004).
